# Assay results reported in publication PMC12631006, “Gold‐Dithiocarbamato Glycoconjugates as Potential Anticancer Agents: Design, Physico‐Chemical Characterization, and In Vitro Biological Activity” (Chembiochem, 2025).
# Legend:
# [1] = system: RC‐124 cells; assay: Cell growth inhibition assay (Crystal Violet), non-tumor reference; assay type: cell-based, human; conditions: RC‐124 non‐malignant kidney epithelial cells, 96 h incubation, mean ± SD of three independent experiments
# Method: (§1) The capability of the gold(III) complexes Au1‐5, the gold(I)‐phosphine derivatives AuP1‐5, and the gold(I)‐carbene counterparts AuC1‐5 to inhibit cell proliferation was assayed on three human tumor cell lines, namely, colorectal adenocarcinoma (HT‐29), metastatic breast adenocarcinoma (MDA‐MB‐231), and breast adenocarcinoma (MCF‐7) cells, whereas human non‐malignant kidney epithelial (RC‐124) cells were used as non‐tumor reference cell line. […]
# Human non-malignant kidney epithelial (RC-124) cells were maintained in McCoy’s 5A Medium (modified to contain 1.5 mM L-glutamine and 2.2 g L-1 sodium bicarbonate; Life Technologies).
# (§2) Cells were cultured at 37°C in 5% CO2 and moisture-enriched atmosphere in the respective medium […]
# (Biochrom) and passaged once a week.
# For experiments involving RC-124 cells, microtiter plates were pre-treated as follows. 30 µL of a 1.5% m/v sterilized gelatine solution were added to each well of flat-bottomed 96-well plates, plates were covered with their lids and incubated for 1 h at 37°C. The excess solution was then removed, wells were washed with PBS solution (pH 7.4), and new cell culture medium was added.
# (§3) Cell growth inhibition assay
# (§4) Stock solutions of the gold(III) complexes Au1-5, and the gold(I) complexes AuP1-5 and AuC1-5 in DMF were freshly prepared and subsequently diluted with the appropriate complete cell culture medium […]
# (§5) The in vitro antiproliferative activity of the various gold complexes was determined following a modified protocol previously reported.[68] 100 µL of HT-29 cells (2.5×10^3 cells mL-1), MDA-MB-231 cells […]
# (§6) in 96-well cell culture plates and incubated at 37°C in 5% CO2 humidified atmosphere (note: for RC-124, pre-treated plates were used as mentioned above). After 72 h (MDA-MB-231, MCF-7, RC-124) or 48 h (HT-29), cells were treated with the test compounds at different concentrations (0.01-50 µM) and incubated for further 72 h (HT-29) or 96 h (MDA-MB-231, MCF-7, RC-124) at 37°C. The medium was then discarded, cells were washed with fresh PBS solution and harvested, and the Crystal Violet (Sigma-Aldrich/Merck) staining assay was performed to determine cell viability. The inhibition of cell growth induced by the tested compounds was assessed by measuring the absorbance of each well at 590 nm using a Victor X4 microplate reader (Perkin Elmer). Antiproliferative data are expressed as IC50 values, that is, the concentration (μM) of the test agent inhibiting cell proliferation by 50% compared with untreated […]
# (§7) control cultures. […]
# [2] = system: HT‐29 cells; assay: Cell growth inhibition assay (Crystal Violet); assay type: cell-based, human; conditions: HT‐29 colorectal adenocarcinoma cells, 72 h incubation, mean ± SD of three independent experiments
# Method: as §1
# (§8) high-glucose Dulbecco’s Modified Eagle’s Medium (4.5 g L-1 D-glucose, 4 mM L-glutamine, 1 mM sodium pyruvate, 1.5 g L-1 sodium bicarbonate; Life Technologies). […]
# as §2
# (§9) (Biochrom) and passaged once a week. […]
# as §3, §4, §5, §6, §7
# [3] = system: MCF‐7 cells; assay: Cell growth inhibition assay (Crystal Violet); assay type: cell-based, human; conditions: MCF‐7 breast adenocarcinoma cells, 96 h incubation, mean ± SD of three independent experiments
# Method: as §1, §8, §2, §9, §3, §4, §5, §6, §7
# [4] = system: MDA‐MB‐231 cells; assay: Cell growth inhibition assay (Crystal Violet); assay type: cell-based, human; conditions: MDA‐MB‐231 metastatic breast adenocarcinoma cells, 96 h incubation, mean ± SD of three independent experiments
# Method: as §1, §8, §2, §9, §3, §4, §5, §6, §7
# [5] = system: HT‐29, MDA‐MB‐231 and MCF‐7 cells; assay: Cell growth inhibition, stated over all tested tumor cell lines; assay type: cell-based, human; conditions: HT‐29, MDA‐MB‐231, MCF‐7
# Method: as §1, §8, §2, §9
# Cell growth inhibition assay […]
# (§10) The in vitro antiproliferative activity of the various gold complexes was determined following a modified protocol previously reported.[68] […]
# in 96-well cell culture plates and incubated at 37°C in 5% CO2 humidified atmosphere (note: for RC-124, pre-treated plates were used as mentioned above). […] The inhibition of cell growth induced by the tested compounds was assessed by measuring the absorbance of each well at 590 nm using a Victor X4 microplate reader (Perkin Elmer). […]
# [6] = system: MCF‐7 cells; assay: Cellular uptake of gold (HR‐CS AAS); assay type: cell-based, human; conditions: 10 μM, 6 h
# Method: It is often assumed that the antiproliferative activity of gold complexes is strongly linked to the efficiency of their cellular uptake and internalization. Moreover, glycoconjugates are commonly believed to enter cells through GLUTs, which, as discussed earlier, are generally over‐expressed in several cancer cells. In particular, GLUT1 is crucial for the uptake of glucose by breast cancer cells, including MDA‐MB‐231 and MCF‐7.^[ [70] ^] […] The gold levels were determined by high‐resolution continuum‐source atomic absorption spectroscopy (HR‐CS AAS) after exposure to 10 μM concentration of the selected compounds over 6 h using either a high‐glucose‐contents or glucose‐free cell culture medium. […]
# as §10
# in 96-well cell culture plates and incubated at 37°C in 5% CO2 humidified atmosphere (note: for RC-124, pre-treated plates were used as mentioned above). […] The inhibition of cell growth induced by the tested compounds was assessed by measuring the absorbance of each well at 590 nm using a Victor X4 microplate reader (Perkin Elmer). […] Results were calculated as the mean values ± standard deviation (SD) of three […]
# [7] = Stability in PBS by UV–Vis; assay type: physicochemical; conditions: PBS pH 7.4, 37°C, 25 μM, UV–Vis over time
# Method: DMSO and DMF are solvents commonly used to prepare stock solutions of metal complexes prior to performing biological studies, especially if poorly soluble in aqueous media. […] However, to mimic a physiological‐like environment, stability studies in phosphate‐buffered saline (PBS) solution at pH 7.4 and 37°C were carried out for the various gold complexes by UV–Vis spectrophotometry.
IC50 values over the tested tumor cell lines [5],SMILES,IC50 [1] [µM],IC50 [2] [µM],IC50 [3] [µM],IC50 [4] [µM],Gold content (intracellular gold) ([6]; with or without glucose (4.5 g L^−1) and with or without Cytochalasin B 50 μM),"Gold uptake in glucose‐ and Cytochalasin B‐free medium versus conditions with glucose, Cytochalasin B, or both ([6]; not statistically significant)",Stability in PBS [7]
–,"O=C(NC1C(O)OC(CO)C(O)C1O)C1CCN(C2=[S+][Au-]([Br])([Br])[S]2)CC1 (mixture of isomers) [Au3, [Au^IIIBr2(SSC‐Inp‐GlcN1)]]",> 50,> 50,> 50,> 50,–,–,–
–,"CCn1[c]([Au-][S]C(=S)N2CCC(C(=O)NC3C(O)OC(CO)C(O)C3O)CC2)[n+](CC)c2ccccc21 (mixture of isomers) [AuC3, [Au^I(SSC‐Inp‐GlcN1)(Et2BzImy)]]",–,22.7 ± 1,12.3 ± 1.4,11.5 ± 0.6,–,–,–
–,"O=C(NC1C(O)OC(CO)C(O)C1O)C1CCN(C(=S)[S][Au][PH](c2ccccc2)(c2ccccc2)c2ccccc2)CC1 (mixture of isomers) [AuP3, [Au^I(SSC‐Inp‐GlcN1)(PPh3)]]",–,8.8 ± 1.6,2.6 ± 0.4,2.4 ± 0.8,–,–,–
low micromolar range,"CCOC(=O)C1CCN(C2=[S+][Au-]([Br])([Br])[S]2)CC1 [Au1, [Au^IIIBr2(SSC‐Inp‐OEt)]]",0.6 ± 0.1,1.2 ± 0.2,0.8 ± 0.1,1.4 ± 0.2,–,–,–
low micromolar range,"NC(=O)C1CCN(C2=[S+][Au-]([Br])([Br])[S]2)CC1 [Au2, [Au^IIIBr2(SSC‐Inp‐NH2)]]",9.9 ± 0.8,20.1 ± 0.1,5.1 ± 1,8.9 ± 1.1,consistently similar cellular uptake values,–,–
–,"CO[C@H]1O[C@H](CO)[C@@H](O)[C@H](O)[C@H]1NC(=O)C1CCN(C2=[S+][Au-]([Br])([Br])[S]2)CC1 [Au4, [Au^IIIBr2(SSC‐Inp‐GlcN2)]]",48.2 ± 13.2,> 50,> 50,> 50,–,slightly higher,–
–,"CO[C@H]1O[C@H](CNC(=O)C2CCN(C3=[S+][Au-]([Br])([Br])[S]3)CC2)[C@@H](O)[C@H](O)[C@H]1O [Au5, [Au^IIIBr2(SSC‐Inp‐GlcN3)]]",18.8 ± 1.7,> 50,> 50,> 50,–,–,–
–,"CCOC(=O)CN(C)C(=S)[S][Au]=[c]1n(CC)c2ccccc2n1CC [AuC1, [Au^I(SSC‐Sar‐OEt)(Et2BzImy)]]",0.6 ± 0.1,1 ± 0.1,0.5 ± 0.1,0.8 ± 0.1,–,–,–
–,"CCn1[c]([Au-][S]C(=S)N2CCC(C(N)=O)CC2)[n+](CC)c2ccccc21 [AuC2, [Au^I(SSC‐Inp‐NH2)(Et2BzImy)]]",–,6.4 ± 1.3,4.9 ± 0.6,4.7 ± 0.3,–,–,–
–,"CCn1[c]([Au-][S]C(=S)N2CCC(C(=O)N[C@H]3[C@@H](OC)O[C@H](CO)[C@@H](O)[C@@H]3O)CC2)[n+](CC)c2ccccc21 [AuC4, [Au^I(SSC‐Inp‐GlcN2)(Et2BzImy)]]",–,11.3 ± 0.4,10.3 ± 0.3,10.5 ± 0.4,–,–,–
–,"CCn1[c]([Au-][S]C(=S)N2CCC(C(=O)NC[C@H]3O[C@H](OC)[C@H](O)[C@@H](O)[C@@H]3O)CC2)[n+](CC)c2ccccc21 [AuC5, [Au^I(SSC‐Inp‐GlcN3)(Et2BzImy)]]",–,11.8 ± 1.1,10.6 ± 0.6,9.6 ± 1.5,–,–,major spectral changes occur soon after dissolution
–,"CCOC(=O)C1CCN(C(=S)[S][Au][PH](c2ccccc2)(c2ccccc2)c2ccccc2)CC1 [AuP1, [Au^I(SSC‐Inp‐OEt)(PPh3)]]",–,0.5 ± 0.1,0.2 ± 0.1,0.6 ± 0.2,–,–,–
–,"NC(=O)C1CCN(C(=S)[S][Au][PH](c2ccccc2)(c2ccccc2)c2ccccc2)CC1 [AuP2, [Au^I(SSC‐Inp‐NH2)(PPh3)]]",–,2.9 ± 0.7,1.3 ± 0.1,1.4 ± 0.3,–,–,–
–,"CO[C@H]1O[C@H](CO)[C@@H](O)[C@H](O)[C@H]1NC(=O)C1CCN(C(=S)[S][Au][PH](c2ccccc2)(c2ccccc2)c2ccccc2)CC1 [AuP4, [Au^I(SSC‐Inp‐GlcN2)(PPh3)]]",–,6.3 ± 0.5,2.4 ± 0.4,2.4 ± 0.7,–,–,–
–,"CO[C@H]1O[C@H](CNC(=O)C2CCN(C(=S)[S][Au][PH](c3ccccc3)(c3ccccc3)c3ccccc3)CC2)[C@@H](O)[C@H](O)[C@H]1O [AuP5, [Au^I(SSC‐Inp‐GlcN3)(PPh3)]]",–,6.7 ± 1.1,2.5 ± 0.4,2.5 ± 0.5,–,–,–
